Four substances from US7396814B2, “Metallopeptide compositions for treatment of sexual dysfunction” (Palatin Technologies, Inc., priority 1995, dated 2008) can be followed below.

The target in one assay is T1, hMC5-R (Homo sapiens, UniProt P33032).
T1 construct: expressed in transfected cells
The assay can be described thus: Competitive inhibition binding assay, 125I-NDP-MSH, hMC5-R. As to conditions: 1 μM metallopeptide; 0.4 nM 125I-NDP-MSH; hMC5-R membranes. As to the method:
(§1) A competitive inhibition binding assay was conducted using membranes prepared from hMC3-R, hMC4-R, hMC5-R, and B-16 mouse melanoma cells (containing MC1-R) using 0.4 nM ^125I-NDP-MSH (0.2 nM for MC1-R) (New England Nuclear, Boston, Mass., USA) in 50 mM HEPES buffer containing 1 mM MgCl2, 2 mM CaCl2, and 5 mM KCl, at pH 7.2. The assay tube also contained a chosen concentration of the metallopeptides of this invention, at a 1 μM concentration, for determining inhibition of the binding of ^125I-NDP-MSH to its receptor. Non-specific binding was measured by complete inhibition of binding of ^125I-NDP-MSH in the assay in the presence of 1 μM α-MSH. Incubation was for 90 minutes at 37° C., after which the assay mixture was filtered and the membranes washed three times with ice cold buffer. The filter was dried and counted in a gamma counter for remaining radioactivity bound to the membranes. 100% specific binding was defined as the difference in radioactivity (cpm) bound to cell membranes in the absence and presence of 1 μM α-MSH. The cpm obtained in the presence of metallopeptides of this invention were normalized with respect to 100% specific binding to determine the percent inhibition of ^125I-NDP-MSH binding. Each assay was conducted in triplicate.

For another assay, the target named is T2, hMC3-R (Homo sapiens, UniProt P41968).
T2 construct: expressed in transfected cells
The assay can be described thus: Competitive inhibition binding assay, 125I-NDP-MSH, hMC3-R. As to conditions: 1 μM metallopeptide; 0.4 nM 125I-NDP-MSH; hMC3-R membranes. On the procedure:
as §1

For assay [1], the target named is T3, MC1-R (B-16 mouse melanoma cells) (Mus musculus, UniProt Q01727).
T3 construct: membranes prepared from hMC3-R, hMC4-R, hMC5-R, and B-16 mouse melanoma cells (containing MC1-R); endogenous in cells; host or cells: B-16 mouse melanoma cells
The assay can be described thus: Competitive inhibition binding assay, 125I-NDP-MSH, MC1-R. The conditions noted are these: 1 μM metallopeptide; 0.2 nM 125I-NDP-MSH; B-16 mouse melanoma cell membranes. On the procedure:
as §1

In a further assay the target is T4, hMC4-R (Homo sapiens, UniProt P32245).
T4 construct: expressed in transfected cells
The assay can be described thus: Competitive inhibition binding assay, 125I-NDP-MSH, hMC4-R. As to conditions: 1 μM metallopeptide; 0.4 nM 125I-NDP-MSH; hMC4-R membranes. As to the method: as §1

Non-standard residues stand in square brackets, D forms with d. *: point of attachment. dPhe(4-Cl) = N[C@H](Cc1ccc(Cl)cc1)C(=O)O; Heptanoyl = CCCCCCC(=O)*; Nle = CCCC[C@H](N)C(=O)O; Bn = c1ccc(C*)cc1

T3 sequence (Q01727 whole entry): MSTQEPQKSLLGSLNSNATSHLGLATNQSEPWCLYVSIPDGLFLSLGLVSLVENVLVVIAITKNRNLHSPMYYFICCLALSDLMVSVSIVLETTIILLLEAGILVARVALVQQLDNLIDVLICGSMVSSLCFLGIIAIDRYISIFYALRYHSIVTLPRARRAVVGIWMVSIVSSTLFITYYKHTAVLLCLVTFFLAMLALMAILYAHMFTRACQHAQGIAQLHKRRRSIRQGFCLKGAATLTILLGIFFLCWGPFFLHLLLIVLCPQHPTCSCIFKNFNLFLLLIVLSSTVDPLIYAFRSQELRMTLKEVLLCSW
T1 sequence (P33032 whole entry): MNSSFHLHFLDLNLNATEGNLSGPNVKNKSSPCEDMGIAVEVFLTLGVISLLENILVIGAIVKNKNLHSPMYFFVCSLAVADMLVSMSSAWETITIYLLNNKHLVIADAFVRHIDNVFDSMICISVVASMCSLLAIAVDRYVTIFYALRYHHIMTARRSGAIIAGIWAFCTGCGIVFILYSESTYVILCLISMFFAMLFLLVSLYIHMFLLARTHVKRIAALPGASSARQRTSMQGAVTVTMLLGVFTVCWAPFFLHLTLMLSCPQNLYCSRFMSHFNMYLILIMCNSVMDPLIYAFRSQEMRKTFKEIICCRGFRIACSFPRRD
T4 sequence (P32245 whole entry): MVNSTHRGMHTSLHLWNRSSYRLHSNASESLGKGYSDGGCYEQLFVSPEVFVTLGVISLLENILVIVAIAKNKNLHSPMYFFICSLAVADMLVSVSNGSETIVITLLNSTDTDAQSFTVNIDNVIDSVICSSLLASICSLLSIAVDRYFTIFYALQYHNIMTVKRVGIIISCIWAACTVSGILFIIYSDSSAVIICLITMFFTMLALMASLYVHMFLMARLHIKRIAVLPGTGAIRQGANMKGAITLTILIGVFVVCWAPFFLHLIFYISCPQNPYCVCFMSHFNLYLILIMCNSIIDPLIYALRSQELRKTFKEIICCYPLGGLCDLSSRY
T2 sequence (P41968 whole entry): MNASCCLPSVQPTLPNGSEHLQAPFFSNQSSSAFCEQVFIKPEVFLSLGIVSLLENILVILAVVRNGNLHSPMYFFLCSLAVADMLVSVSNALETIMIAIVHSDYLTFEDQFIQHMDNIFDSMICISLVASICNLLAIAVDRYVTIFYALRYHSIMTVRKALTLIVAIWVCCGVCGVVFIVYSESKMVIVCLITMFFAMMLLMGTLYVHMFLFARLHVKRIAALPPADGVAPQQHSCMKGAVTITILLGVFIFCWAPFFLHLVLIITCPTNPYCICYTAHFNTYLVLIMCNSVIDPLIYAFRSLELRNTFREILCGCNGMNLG

Ac-[Nle]AH[dF]CR-OH: the “Percent Inhibition at 1 μM MC5-R” value on hMC5-R is reported as 9%. The “Percent Inhibition at 1 μM MC3-R” value at hMC3-R was found to be 0%. For the same substance, the “Percent Inhibition at 1 μM MC1-R” value in assay [1] stood at 14%. Also, the “Percent Inhibition at 1 μM MC4-R” value at hMC4-R was found to be 23%.

Take Ac-[Nle]AH[dF]RC-OH: the “Percent Inhibition at 1 μM MC5-R” value on hMC5-R was found to be 12%. Moreover, at hMC3-R, the “Percent Inhibition at 1 μM MC3-R” value amounted to 0%. In addition, the “Percent Inhibition at 1 μM MC1-R” value in assay [1] was found to be 18%. The “Percent Inhibition at 1 μM MC4-R” value at hMC4-R is given as 37%.

For Ac-[Nle]AH[dF]RGC-OH, on hMC5-R, the “Percent Inhibition at 1 μM MC5-R” value is on record as 23%. At hMC3-R, the “Percent Inhibition at 1 μM MC3-R” value is reported as 3%. The “Percent Inhibition at 1 μM MC1-R” value in assay [1] came to 26%. Also, the “Percent Inhibition at 1 μM MC4-R” value at hMC4-R is given as 27%.

For Heptanoyl-S(Bn)[dPhe(4-Cl)]RC-NH2, on hMC5-R, the “Percent Inhibition at 1 μM MC5-R” value is on record as 26%. Also, the “Percent Inhibition at 1 μM MC3-R” value at hMC3-R was determined as 13%. The “Percent Inhibition at 1 μM MC1-R” value in assay [1] worked out at 30%. The “Percent Inhibition at 1 μM MC4-R” value on hMC4-R is reported as 38%.
